In patent US20040132803A1, “Agent for the treatment of overactive bladder” (priority 2003, published 2004):

Columns and labels:
[1] = tested on: slowly-inactivating A-type K^+ currents; assay: Voltage-clamp outward K^+ currents at HP −90 mV in unidentified DRG neurons; assay type: cell-based, rat; settings: for K^+ current at HP: −90 mV, relative value (before compound = 1): unidentified DRG neurons
Experimental: (§1) Experiments were performed on adult female Sprague Dawley rats. First and second series of the experiments were performed, respectively, in unidentified DRG neurons and a specific population of DRG neurons innervating the urinary bladder. The population of DRG neurons that innervate the urinary bladder were labeled by retrograde axonal transport of the fluorescent dye, Fast Blue (4% w/v) (Polyloy, Gross Umstadt, Germany), injected into the wall of the bladder in halothane-anesthetized animals 7 days before the dissociation. The dye was injected with a 28 gauge needle at three to six sites on the dorsal surface of the organ (5-6 μL per site, total volume of 20-30 μL). Each injection site was washed with saline to minimize contamination of adjacent organs with the dye.
Freshly dissociated neurons from DRG were prepared from halothane-anesthetized animals. L6 and S1 DRG were dissected from animals and then dissociated in a shaking bath for 25 minutes at 35° C. with 5 mL DMEM (Sigma) containing 0.3 mg/mL trypsin (Type 3, Sigma), 1 mg/mL collagenase (Type 1, Sigma), and 0.1 mg/mL deoxyribonuclease (Type 4, Sigma). Trypsin inhibitor (Type 2a, Sigma) was then added thereto to neutralize the activity of trypsin. Individual DRG cell bodies were isolated by trituration and then plated on a poly-L-lysine-coated 35 mm Petri dishes.
Dye-labeled primary afferent neurons that innervate the urinary bladder were identified using an inverted phase-contrast microscope (Nikon, Tokyo, Japan) with fluorescent attachments (UV-1A filter; excitation wavelength, 365 nm). Gigaohm-seal whole-cell recordings were performed at room temperature (20-22° C.) on each labeled neuron in a culture dish that usually contained three to seven labeled cells among a few hundred unlabeled neurons. The internal solution contained (in mmol/L): KCl 140, CaCl2 1, MgCl2 2, EGTA 11, HEPES 10, Mg-ATP 2, and Tris-GTP 0.4 adjusted to pH 7.4 with KOH. Patch electrodes had resistances of 1-4 MΩ when filled with the internal solution. Neurons were superfused at a flow rate of 1.5 mL/minutes with an external solution containing (in mmol/L): NaCl 150, KCl 5, CaCl2 2.5, MgCl2 1, HEPES 10, and D-glucose 10, adjusted to pH 7.4 with NaOH. All recordings were made with an Axopatch-1D patch-clamp amplifier (Axon Instruments, Foster City, Calif.), and data were acquired and analyzed by PCLAMP software (Axon Instruments).
In voltage-clamp recordings, outward K^+ currents and inward Na^+ currents were measured. For the isolation of K^+ currents, the external solution was changed to one containing (in mmol/L): choline-Cl 150, KOH 5, CaCl2 0.03, HEPES 10, Mg(OH)2 3, and D-glucose 10, adjusted to pH 7.4 with HCl.
In first series of experiments using unidentified DRG neurons, outward K^+ currents were evoked by voltage steps to +60 mV, 800 ms long from a holding potentials of −90 mV, this was followed by a 1-second conditioning prepulse to −20 mV followed by a second pulse to +60 mV, identical to the first in the sequence. In the second series of experiments using Fast Blue-labeled bladder afferent neurons, slowly-inactivating A-type K^+ currents were isolated by. subtraction of outward K^+ currents activated from a holding potential of −40 mV (on the condition of inactivation of the majority of slowly-inactivating A-type K^+ currents) from those activated from a holding potential of −120 mV (on the condition of full activation of slowly-inactivating A-type K^+ currents). A compound was added cumulatively, starting with a lower concentration. Currents were measured at the maximum (peak) and normalized to control (before addition of the compound).

[2] = tested on: rats with hypertrophic bladder; assay: Inhibition of detrusor instability, cystometry in rats with partial urethra obstruction (hypertrophic bladder); assay type: in vivo, rat; settings: for micturition contraction, relative to before administration = 100 / pre-micturition contraction, relative to before administration = 100: rats with partial urethra obstruction
Source text: Partial urethra obstruction was induced in rats.

[3] = tested on: delayed rectifier K^+ currents; assay: Delayed rectifier K^+ currents in Fast Blue-labeled capsaicin-sensitive bladder afferent neurons; assay type: cell-based, rat; settings: 1.0 × 10^−6 mol/L
Experimental: as §1
Freshly dissociated neurons from DRG were prepared from halothane-anesthetized animals. […]
Dye-labeled primary afferent neurons that innervate the urinary bladder were identified using an inverted phase-contrast microscope (Nikon, Tokyo, Japan) with fluorescent attachments (UV-1A filter; excitation wavelength, 365 nm). […] All recordings were made with an Axopatch-1D patch-clamp amplifier (Axon Instruments, Foster City, Calif.), and data were acquired and analyzed by PCLAMP software (Axon Instruments).
In voltage-clamp recordings, outward K^+ currents and inward Na^+ currents were measured. […]

[4] = 0.001 mg/kg p.o., after 3 hours
[5] = 0.001 mg/kg p.o., after 5 hours

Q: Which results are given for `C[C@](O)(C(=O)Nc1cccc2c1C(=O)c1sccc1CS2(=O)=O)C(F)(F)F` [Compound 1, (S)-(+)-N-(5,5-dioxido-10-oxo-4,10-dihydrothieno[3,2-c][l]benzothiepin-9-yl)-3,3,3-trifluoro-2-hydroxy-2-methylpropanamide]?
A: K^+ current at HP: −90 mV, relative value ([1]; 1.0 × 10^−5 mol/L, in the presence of 5 μmol/L verapamil): 0.99 ± 0.02; K^+ current at HP: −90 mV, relative value ([1]; 1.0 × 10^−5 mol/L, in the presence of 20 mmol/L tetraethylammonium): 1.19 ± 0.01; K^+ current at HP: −90 mV, relative value (before compound = 1) ([1]; 1.0 × 10^−5 mol/L): 0.96 ± 0.05; K^+ current at HP: −90 mV, relative value ([1]; 1.0 × 10^−6 mol/L, in the presence of 5 μmol/L verapamil): 1.11 ± 0.03; K^+ current at HP: −90 mV, relative value ([1]; 1.0 × 10^−6 mol/L, in the presence of 20 mmol/L tetraethylammonium): 1.19 ± 0.05; K^+ current at HP: −90 mV, relative value (before compound = 1) ([1]; 1.0 × 10^−6 mol/L): 1.06 ± 0.02; K^+ current at HP: −90 mV, relative value ([1]; 1.0 × 10^−7 mol/L, in the presence of 5 μmol/L verapamil): 1.13 ± 0.02; K^+ current at HP: −90 mV, relative value ([1]; 1.0 × 10^−7 mol/L, in the presence of 20 mmol/L tetraethylammonium): 1.10 ± 0.01; K^+ current at HP: −90 mV, relative value (before compound = 1) ([1]; 1.0 × 10^−7 mol/L): 1.12 ± 0.03; K^+ current at HP: −90 mV, relative value (before compound = 1) ([1]; 1.0 × 10^−8 mol/L): 0.99 ± 0.08; K^+ current at HP: −90 mV, relative value (before compound = 1) ([1]; 2.5 × 10^−8 mol/L): 1.07 ± 0.03; K^+ current at HP: −90 mV, relative value ([1]; 5.0 × 10^−4 mol/L, in the presence of 5 μmol/L verapamil): 0.61 ± 0.05; K^+ current at HP: −90 mV, relative value ([1]; 5.0 × 10^−4 mol/L, in the presence of 20 mmol/L tetraethylammonium): 0.29 ± 0.02; K^+ current at HP: −90 mV, relative value ([1]; 5.0 × 10^−4 mol/L, in the presence of 60 mmol/L tetraethylammonium): 0.56 ± 0.05; K^+ current at HP: −90 mV, relative value ([1]; 5.0 × 10^−5 mol/L, in the presence of 5 μmol/L verapamil): 0.94 ± 0.02; K^+ current at HP: −90 mV, relative value ([1]; 5.0 × 10^−5 mol/L, in the presence of 20 mmol/L tetraethylammonium): 0.91 ± 0.04; K^+ current at HP: −90 mV, relative value ([1]; 5.0 × 10^−5 mol/L, in the presence of 60 mmol/L tetraethylammonium): 1.15 ± 0.08; K^+ current at HP: −90 mV, relative value (before compound = 1) ([1]; 5.0 × 10^−5 mol/L): 0.83 ± 0.09; K^+ current at HP: −90 mV, relative value ([1]; 5.0 × 10^−6 mol/L, in the presence of 5 μmol/L verapamil): 1.02 ± 0.03; K^+ current at HP: −90 mV, relative value ([1]; 5.0 × 10^−6 mol/L, in the presence of 20 mmol/L tetraethylammonium): 1.16 ± 0.03; K^+ current at HP: −90 mV, relative value ([1]; 5.0 × 10^−6 mol/L, in the presence of 60 mmol/L tetraethylammonium): 1.14 ± 0.05; K^+ current at HP: −90 mV, relative value ([1]; 5.0 × 10^−7 mol/L, in the presence of 5 μmol/L verapamil): 1.17 ± 0.03; K^+ current at HP: −90 mV, relative value ([1]; 5.0 × 10^−7 mol/L, in the presence of 20 mmol/L tetraethylammonium): 1.15 ± 0.04; K^+ current at HP: −90 mV, relative value ([1]; 5.0 × 10^−7 mol/L, in the presence of 60 mmol/L tetraethylammonium): 1.11 ± 0.03; K^+ current at HP: −90 mV, relative value (before compound = 1) ([1]; 5.0 × 10^−7 mol/L): 1.15 ± 0.03; K^+ current at HP: −90 mV, relative value ([1]; 5.0 × 10^−8 mol/L, in the presence of 5 μmol/L verapamil): 1.03 ± 0.02; K^+ current at HP: −90 mV, relative value ([1]; 5.0 × 10^−8 mol/L, in the presence of 20 mmol/L tetraethylammonium): 1.08 ± 0.02; K^+ current at HP: −90 mV, relative value ([1]; 5.0 × 10^−8 mol/L, in the presence of 60 mmol/L tetraethylammonium): 1.08 ± 0.02; K^+ current at HP: −90 mV, relative value (before compound = 1) ([1]; 5.0 × 10^−8 mol/L): 1.07 ± 0.02; K^+ current at HP: −90 mV, relative value ([1]; 5.0 × 10^−9 mol/L, in the presence of 20 mmol/L tetraethylammonium): 1.02 ± 0.02; K^+ current at HP: −90 mV, relative value (before compound = 1) ([1]; 5.0 × 10^−9 mol/L): 1.01 ± 0.03; peak compound concentration for increase of slowly-inactivating A-type K^+ currents ([1]; unidentified DRG cells, HP −90 mV): 1e-07 to 5e-07 mol/L; micturition contraction, relative to before administration = 100 ([2]; 0.001 mg/kg p.o., after 1 hour): 99.3 ± 2.3%; pre-micturition contraction, relative to before administration = 100 ([2]; 0.001 mg/kg p.o., after 1 hour): 105.9 ± 7.8%; micturition contraction, relative to before administration = 100 [2, 4]: 101.5 ± 3.3%; pre-micturition contraction, relative to before administration = 100 [2, 4]: 100.3 ± 10.0%; micturition contraction, relative to before administration = 100 [2, 5]: 98.7 ± 5.2%; pre-micturition contraction, relative to before administration = 100 [2, 5]: 104.2 ± 10.2%; micturition contraction, relative to before administration = 100 ([2]; 0.01 mg/kg p.o., after 1 hour): 99.6 ± 1.2%; pre-micturition contraction, relative to before administration = 100 ([2]; 0.01 mg/kg p.o., after 1 hour): 59.5 ± 4.1 %; micturition contraction, relative to before administration = 100 ([2]; 0.01 mg/kg p.o., after 3 hours): 92.6 ± 3.2%; pre-micturition contraction, relative to before administration = 100 ([2]; 0.01 mg/kg p.o., after 3 hours): 69.5 ± 4.4 %; micturition contraction, relative to before administration = 100 ([2]; 0.01 mg/kg p.o., after 5 hours): 90.1 ± 4.3%; pre-micturition contraction, relative to before administration = 100 ([2]; 0.01 mg/kg p.o., after 5 hours): 67.8 ± 5.5 %; micturition contraction, relative to before administration = 100 ([2]; 0.1 mg/kg p.o., after 1 hour): 106.2 ± 9.2%; pre-micturition contraction, relative to before administration = 100 ([2]; 0.1 mg/kg p.o., after 1 hour): 55.8 ± 8.2 %; micturition contraction, relative to before administration = 100 ([2]; 0.1 mg/kg p.o., after 3 hours): 105.2 ± 9.6%; pre-micturition contraction, relative to before administration = 100 ([2]; 0.1 mg/kg p.o., after 3 hours): 66.2 ± 4.7 %; micturition contraction, relative to before administration = 100 ([2]; 0.1 mg/kg p.o., after 5 hours): 100.1 ± 8.6%; pre-micturition contraction, relative to before administration = 100 ([2]; 0.1 mg/kg p.o., after 5 hours): 69.2 ± 7.4 %; effect on micturition contraction ([2]; rats with hypertrophic bladder): had no influence; effect on pre-micturition contraction (detrusor instability) ([2]; rats with hypertrophic bladder): inhibited; Delayed rectifier HP: −40 mV, normalized to control [3]: 1.10 ± 0.01
